Laboratory results taken from EP0388528B1, “Carboximidamide derivatives” (KIRIN BEER KABUSHIKI KAISHA, priority 1988, dated 1990).

Tests used:
[1] = tested on: spontaneous hypertensive rats (SHR); experiment: Hypotensive effect on spontaneous hypertensive rats (intravenously) (Referential Example 1)-3); format: in vivo; details: Rattus norvegicus, iv, anesthetized SHR, dose descending mean blood pressure by 20%; read-out: ED₂₀ (mg/kg, i.v.)
Description: Rats were anesthetized with urethane-α-chloralose (1 g/kg - 25 mg/kg; intraperitoneally). Mean blood pressure was measured by a pressure transducer through a cannula inserted into the carotid artery. The compound was cumulatively administered every 30 minutes through the cannula inserted into the jagular vein. The change in blood pressure was expressed as percent of the blood pressure before the administration of the compound. And the ED₂₀ value, which was the dose required for descending blood pressure to an extent of 20%, was calculated from the dose-response curve.

isolated rat aortae = experiment: Vasorelaxing effect on the isolated rat aortae (Referential Example 1)-1); details: inhibition of contraction induced by 40 mM KCl
Description: The compounds of the present invention were tested for their physiological activities by measuring the tension of isolated rat aortae isometrically.
Thoracic aortae obtained from male Wistar rats (weighing 250-350 g) were cut into ring segments about 3 mm long. The ring preparation was placed in an organ bath filled with 10 ml of Krebs-Ringer solution that was maintained at 37°C and gassed with 95% O₂ - 5% CO₂.
The preparation in the organ bath was allowed to equilibrate under resting tension of 1 g. After equilibration period, the solution in the organ bath was replaced with an isotonic solution containing 40 mM KCl to contract the preparation.
After the contraction induced by KCl had reached plateau, the concentration-response relationship for the test compound was determined by means of cumulative addition.
The relaxation response of the test compounds was expressed as the percent inhibition of the contraction induced by KCl, and the IC₅₀ value, which is a concentration required for inhibiting the contraction induced by KCl to an extent of 50%, was calculated by the Probit method from the concentration-response curve.

isolated heart of rats = experiment: Myocardiac injury induced by re-perfusion after ischemia (isolated heart of rats); details: 1×10⁻⁷ mole/min, after 30 minutes re-perfusion, mean ± SD
Description: The cardiac muscle protecting effect of the compound of the present invention was tested by using the isolated heart of rats [test compound: N-cyano-N′-(2-nitroxyethyl)-3-pyridinecarboximidamide (compound (13))]. The Langendorff's method was used in the same manner as in the aforementioned Referential Example 1)-6. The isolated heart was perfused with a perfusate for 30 minutes and then with a perfusate containing the test compound for 10 minutes, and perfusion was stopped so that the heart was in the so-called "ischemic state". Pacing was performed during the ischemia. […] Parameters of cardiac function after the onset of re-perfusion was monitored for 30 minutes, and the heart was quickly freezed. The amount of ATP in the heart muscle was extracted with perchloric acid and determined by HPLC. Nicorandil was used as a control.
The recovery rate of the cardiac function (heart rate × left ventricular pressure) after onset of reperfusion was calculated based on the cardiac function prior to the perfusion of the compound (13) and nicorandil as 100%. The amount of ATP in the heart muscle was also determined.

isolated rat heart = experiment: Effect on isolated rat heart (Langendorff's method); details: 1 × 10⁻⁸ mol/min, mean ± S.D.
Description: The effect of the compound of the present invention on heart of rats was examined by using the Langendorff's method [test compound: N-cyano-N′-(2-nitroxyethyl)-3-pyridinecarboximidamide (compound (13))]. Hearts were excised from male rats (weighing 250-350 g) and perfused at 80 cmH₂O in a Langendorff fashion. Krebs-Hensaleit bicarbonate solution (pH 7.4, 37°C) containing an 11 mM glucose which was oxygenated with 95% O₂- 5% CO₂ gas mixture was used as a perfusate. The left ventricular pressure was recorded by inserting a latex baloon into the left ventricle, and heart rate was determined from the pulse of it. Coronary perfusate flow was also measured with an electromagnetic flowmeter. The experiments were carried out by perfusing a perfusate containing the compound (13) for 10 minutes after an initial equilibration period for 30 minutes. As the control compound, nicorandil which has an effect opening potassium channel and is similar to the test compound in structure was used. The changes in the coronary perfusate flow and the cardiac function (heart rate × left ventricular pressure) caused by these compounds were expressed as percent changes from the preperfusion values of the compound (13) or nicorandil.

SMILES: N#CNC(=NCCO[N+](=O)[O-])c1cccnc1 [Compound (13), N-cyano-N'-(2-nitroxyethyl)-3-pyridinecarboximidamide]
- ED20 [1]: 0.01 mg/kg
- IC50 (isolated rat aortae): 5.1 µM
- Amount of ATP in the heart muscle (µmole/g of dry weight) (isolated heart of rats): 11.12±1.12(6) µmole/g of dry weight
- Coronary Perfusate Flow (% change) (isolated rat heart; perfusion 10 minutes): 51.3±3.2 % change
- Cardiac Function (isolated rat heart; heart rate × left ventricular pressure, percent change from preperfusion): 13.3±6.5%
